Data published in patent US20250250267A1, “NITROGEN-CONTAINING BRIDGED HETEROCYCLIC COMPOUND, PREPARATION METHOD THEREFOR, AND MEDICAL USE THEREOF” (Jiangsu Hengrui Pharmaceuticals Co., Ltd., priority 2020, published 2025).

What was measured:
[1] = test system: passive heymann nephritis rats; experiment: Therapeutic effects on Heymann nephritis in rats induced by sheep anti-rat Fx1A serum; assay type: in vivo; settings: for decrease in rat serum iC3b+C3d compared to the model group: serum day 15; for decrease in the ratio of total protein/creatinine in rat urine compared to the model group: day 14
Source text: Experimental animals: laboratory male SD rats, provided by Vital River Laboratory Animal Technology Co., Ltd. (production license number: SCXK (Zhejiang) 2019-0001; animal certificate number: 20210401Abzz0619000322; weighing 180-200 g at purchase).
After the acclimatization, the male SD rats were grouped as follows according to total protein in urine and body weight in the 2 days before the experiment:
On day 0 of the experiment, the model group and administration groups were given a single tail vein injection of Fx1A serum (5 mL/kg), and the normal group was given a tail vein injection of normal goat serum. […] The experiment ended on day 15. Two-hour urine was collected on days 2, 4, 6, 8, 11, and 14 and assayed for creatinine and total protein. Serum was collected on day 15 for complement activation fragment (C3d+iC3b) analysis.
The experimental data are expressed as mean±standard error (SEM). Statistical comparison was performed using Excel software t-test. The data of the model group and the data of the blank control group were analyzed and compared to judge whether a significant mathematical statistical significance exists. *P<0.05 indicates a significant difference between the model group and the blank control group, **P<0.01 indicates a highly significant difference between the model group and the blank control group, and ***P<0.001 indicates a very highly significant difference between the model group and the blank control group. #P<0.05 indicates a significant difference between an administration group and the model group, ##P<0.01 indicates a highly significant difference between an administration group and the model group, and ###P<0.001 indicates a very highly significant difference between an administration group and the model group.

[2] = test system: human complement alternative pathway; experiment: Inhibition of human complement alternative pathway (zymosan-activated human serum with EGTA, C5b-9 formation); assay type: biochemical; settings: zymosan A, C5b-9 readout
Source text: The alternative pathway can be activated by zymosan. The extent of activation of the alternative pathway can be evaluated by assaying the formation of the C5b-9 complex. […] Since the activation of the two pathways requires both magnesium and calcium ions, and the alternative pathway requires magnesium ions only, after chelation with the calcium ion chelator EGTA, the alternative pathway is not inhibited, while the classical pathway and the lectin pathway are. After chelation with EDTA, the three pathways are all inhibited. Therefore, the inhibitory effects of the small-molecule compounds on the alternative pathway can be evaluated by activating the complement alternative pathway in human serum with zymosan in the presence of the EGTA chelator and assaying the formation of the C5b-9 complex.
Zymosan A powder was resuspended at 10 mg/mL in TBS solution and activated by heating at 100° C. for 2 h. After the activation, the suspension was centrifuged at 4000 rpm for 30 min, and the supernatant was discarded. The residue was resuspended in TBS to form a 50 mg/mL suspension. The suspension was aliquoted and stored in a −20° C. freezer. The day before the experiment, the activated zymosan A solution was diluted to 1 mg/mL with the carbonic acid buffer (pH 9.5) and added to a 96-well adsorption black plate at 100 μL/well, and the plate was coated at 4° C. overnight.
A 100 mM Na2CO3 solution and a 100 mM NaHCO3 solution were prepared and mixed in a ratio of Na2CO3 to NaHCO3 of 3:7 (v/v) to adjust the pH to 9.5. The mixture was stored at room temperature for later use.
Activation reactions of the complement alternative pathway: Human serum was 5-fold diluted with PBS solution to form a 20% serum solution, and the solution was placed on ice for later use. 20 mM test compounds dissolved in 100% DMSO were serially diluted with 100% DMSO to 2000, 500, 125, 31.25, 7.8125, 0.488281, 0.12207, 0.030518, and 0.007629 μM, with the blank well containing 100% DMSO. The compounds and 100% DMSO were then 20-fold diluted in 2× EGTA reaction buffer (4.2 mM HEPES, 0.15 mM CaCl2), 140 mM NaCl, 4.5 mM MgCl2, 0.1% gelatin, 20 mM EGTA). Meanwhile, 100% DMSO was 20-fold diluted in 2× EDTA reaction buffer (4.2 mM HEPES, 0.15 mM CaCl2), 140 mM NaCl, 4.5 mM MgCl2, 0.1% gelatin, 20 mM EDTA) as a negative control well. 40-μL serum-EGTA reaction mixtures were prepared by mixing well 20 μL of 20% human serum, 4 μL of the above test compounds or DMSO diluted in 2× EGTA reaction buffer, and 16 μL of 2× EGTA reaction buffer. Serum-EGTA-DMSO was used as a blank control. The mixtures were incubated at room temperature for 30 min. In the negative control well, a 40-μL serum-EDTA reaction mixture was prepared by mixing well 20 μL of 20% human serum, 4 μL of the above DMSO diluted in 2× EDTA reaction buffer, and 16 μL of 2× EDTA reaction buffer. The mixture was incubated at room temperature for 30 min. The 96-well adsorption black plate coated with zymosan A one day ahead of time was washed 3 times with 300 μL/well TBST (0.05% tween 20) solution, and the serum-EGTA-test compound reaction mixtures, the blank control well, and the serum-EDTA-DMSO reaction mixture (negative control well) were added at 25 L/well. The mixtures were reacted at 37° C. for 40 min. The plate was washed 3 times with 300 μL/well TBST solution, the StartingBlock™ T20 (TBS) blocking buffer was added at 300 μL/well, and the plate was incubated at 37° C. for 15 min.

[3] = biological target: human complement factor B (Homo sapiens (Human), UniProt P00751); experiment: biochemical
Method: Assays for the C3a des Arg epitope generated after C3 is cleaved can be used to evaluate the efficiency of C3 being hydrolyzed, i.e., the C3bBb enzyme activity, and thereby to evaluate the effects of the compounds on the C3bBb enzyme.
A 100 mM Na2CO3 solution and a 100 mM NaHCO3 solution were prepared and mixed in a ratio of Na2CO3 to NaHCO3 of 3:7 (v/v) to adjust the pH to 9.5. The mixture was stored at room temperature for later use. […] The compounds and 100% DMSO were then 20-fold diluted in C3 reaction buffer (PBS pH 7.4, 1 mM MgCl2, 0.05% CHAPS).
Cleavage reactions of the C3 protein: In a 96-well low-volume white plate, 10-μL reaction systems were prepared by adding CVF:Bb (to a final concentration of 2 nM) and 1 μL of the above test compounds and DMSO diluted in C3 reaction buffer to C3 reaction buffer (PBS pH 7.4, 1 mM MgCl2, 0.05% CHAPS). The plate was incubated at room temperature for 1 h. […] Human complement factor C3 was added to the reaction systems to a final concentration of 500 nM. After they were well mixed, the mixtures were reacted in a constant-temperature incubator at 37° C. for 2 h. Among the reaction mixtures, the reaction well that contained only 500 nM human complement factor C3 was used as a negative control. To a 96-well adsorption black plate, 97 μL of the carbonic acid buffer (pH 9.5) was added, and the C3 protein cleavage reaction mixtures were added at 3 μL/well. After they were well mixed, the plate was sealed and incubated at 4° C. overnight.
C3a des Arg assays: The plate was washed 3 times with 300 μL/well TBST (0.05% tween 20) solution, the StartingBlock™ T20 (TBS) blocking buffer was added at 300 μL/well, and the plate was incubated at 37° C. for 5 min. […] The plate was washed 3 times with 300 μL/well PBST solution, the goat anti-mouse IgG H&L (HRP) antibody was 1:5000 diluted in PBST solution and added at 100 μL/well, and the plate was incubated at 37° C. for 30 min. […]
The inhibition rate was calculated using the following formula:

IgAN patients = settings: 4 IgAN patients, end of phase 2; cited from earlier work
[4] = test system: patients with PNH and active hemolysis; settings: cited from earlier work

Compound: CCO[C@H]1C[C@H]2CCC(c3ccc(C(=O)O)cc3)(C1)N2Cc1c(OC)cc(C)c2[nH]ccc12 (stereo in doubt) [Example 1-1, 4-((1S,3S,5R)-3-Ethoxy-8-((5-methoxy-7-methyl-1H-indol-4-yl)methyl)-8-azabicyclo[3.2.1]octan-1-yl)benzoic acid]
- decrease in rat serum iC3b+C3d compared to the model group ([1]; 10 mg/kg orally twice daily): 76.2%
- decrease in rat serum iC3b+C3d compared to the model group ([1]; 30 mg/kg orally twice daily): 105.5%
- decrease in rat serum iC3b+C3d compared to the model group ([1]; 90 mg/kg orally twice daily): 108.7%
- IC50 [2]: 27 nM

Compound: CCO[C@H]1C[C@H]2CCC(c3ccc(C(=O)O)cc3)(C1)N2Cc1c(C2CC2)cc(C)c2[nH]ccc12 (stereo in doubt) [Example 4, 4-((1S,3S,5R)-8-((5-Cyclopropyl-7-methyl-1H-indol-4-yl)methyl)-3-ethoxy-8-azabicyclo[3.2.1]octan-1-yl)benzoic acid]
- IC50 [3]: 1.6 nM
- IC50 [2]: 50.6 nM

Compound: CCO[C@H]1C[C@H]2CC[C@](c3ccc(C(=O)O)cc3)(C1)N2Cc1c(OC)cc(C)c2[nH]ccc12 (relative stereo) [Example 1, (±)-rel-4-((1S,3S,5R)-3-Ethoxy-8-((5-methoxy-7-methyl-1H-indol-4-yl)methyl)-8-azabicyclo[3.2.1]octan-1-yl)benzoic acid]
- IC50 [2]: 43.2 nM

Compound: CCO[C@H]1C[C@H]2CCC(c3ccc(C(=O)O)cc3)(C1)N2Cc1c(C)cc(C)c2[nH]ccc12 (stereo in doubt) [Example 3, 4-((1S,3S,5R)-8-((5,7-Dimethyl-1H-indol-4-yl)methyl)-3-ethoxy-8-azabicyclo[3.2.1]octan-1-yl)benzoic acid]
- IC50 [3]: 4.9 nM
- IC50 [2]: 49.8 nM

Compound: OMS721: humanized monoclonal antibody targeting the MASP-2 protein developed by Omeros Inc.
- proteinuria index (IgAN patients): significantly improved

Compound: CCO[C@H]1C[C@H]2CCC(c3ccc(C(=O)O[C@@H]4O[C@H](C(=O)O)[C@@H](O)[C@H](O)[C@H]4O)cc3)(C1)N2Cc1c(OC)cc(C)c2[nH]ccc12 (stereo in doubt) [Example 5, (2S,3S,4S,5R,6S)-6-((4-((1S,3S,5R)-3-Ethoxy-8-((5-methoxy-7-methyl-1H-indol-4-yl)methyl)-8-azabicyclo[3.2.1]octan-1-yl)benzoyl)oxy)-3,4,5-trihydroxytetrahydro-2H-pyran-2-carboxylic acid]
- IC50 [3]: 30 nM
- IC50 [2]: 74.6 nM

Compound: CCO[C@H]1CCN(Cc2c(OC)cc(C)c3[nH]ccc23)[C@H](c2ccc(C(=O)O)cc2)C1 [LNP023]
- decrease in LDH ([4]; at 13 weeks, all the patients, LNP023 twice daily with eculizumab): 34-81%
- males with Hb>120 g/L ([4]; at 13 weeks): 71%
- tolerability ([4]; twice daily for at least 13 weeks with eculizumab): well tolerated
- day from which statistical decreases in urine total protein/creatinine ratio began ([1]; 20 mg/kg orally twice daily): 11 days
- decrease in the ratio of total protein/creatinine in rat urine compared to the model group ([1]; 20 mg/kg orally twice daily): 56.4%
- decrease in rat serum iC3b+C3d compared to the model group ([1]; 20 mg/kg orally twice daily): 62.2%
- day from which statistical decreases in urine total protein/creatinine ratio began ([1]; 60 mg/kg orally twice daily): 11 days
- decrease in the ratio of total protein/creatinine in rat urine compared to the model group ([1]; 60 mg/kg orally twice daily): 47.1%
- decrease in rat serum iC3b+C3d compared to the model group ([1]; 60 mg/kg orally twice daily): 68.8%
- dose dependence of the decrease in urine total protein/creatinine ratio ([1]; day 14, across dose groups): not significantly dose-dependent
